The structures appear in SMILES notation.

Data on three molecules can be found in paper PMC1197287 (PLoS Biology, 2005).

One data set relates to CoVs. To be noted: cited from earlier work.
On the set-up of data set [1]: method as in PMID 14638501, PMID 11796347. To be noted: cited from earlier work.
On the set-up of data set [2]: method as in PMID 14638501, PMID 11796347. The following applies: in animals; cited from earlier work.
The subject of another data set is rhinovirus. Also on record: method as in PMID 14638501, PMID 11796347. To be noted: intranasal suspension; cited from earlier work.
On the set-up of data set [3]: method as in PMID 14638501, PMID 11796347. The following applies: cited from earlier work. The source holds these as a separate data set.
The next data set has as its target T1, HCoV-229E M^pro (Human coronavirus 229E, UniProt P0C6X1).
T1 construct: HCoV-229E M^pro (15 mg/ml; two amino acids deleted at C-terminal); made in house
In words: biochemical.

The target in the next data set is TGEV M^pro (Porcine transmissible gastroenteritis coronavirus, UniProt P0C6Y5). In words: biochemical.
A further data set addresses FIPV M^pro (Feline coronavirus, UniProt Q98VG9). In words: biochemical. The following applies: pH 7.3, read-out: kobs/[I].
The target in the next data set is MHV M^pro (Murine coronavirus, UniProt P0C6X9). Kind of data set: biochemical. The following applies: pH 7.3, read-out: kobs/[I].
The next data set deals with IBV M^pro (Avian infectious bronchitis virus, UniProt P0C6Y3). In words: biochemical.
The test system of another data set is CoV M^pros. The format is biochemical.
The target of a further data set is SARS-CoV M^pro (Severe acute respiratory syndrome coronavirus, UniProt P0C6X7). Kind of data set: biochemical.
The next data set concerns the target M^pro of HCoV-NL63 (Human coronavirus NL63, UniProt P0C6X5). It is filed as biochemical.
The target in a further data set is M^pro of HCoV-HKU1 (Human coronavirus HKU1, UniProt P0C6X2). It is filed as biochemical.
For the next data set, the system named is HCoV-229E. In words: microbe, parasite or virus in culture. To be noted: Human coronavirus 229E, MRC5, 14 h. The format is cell-based.
The test system of a further data set is FIPV. Kind of data set: microbe, parasite or virus in culture. To be noted: Alphacoronavirus 1, 14 h. The format is cell-based, FIPV (strain 79–1146).
Data set [4] deals with MHV-A59. In words: organism not typed. The format is cell-based. The following applies: 14 h.
The test system of data set [5] is MHV-A59. In words: MHV-A59 plaque-reduction assay in DBT cells. The format is cell-based. The method, then: Murine DBT cells (generously provided by Dr. Lishan Su of University of North Carolina) were cultured in Dulbecco's modified Eagle's medium supplemented with 10% fetal bovine serum (FBS) and antibiotics at 37 °C in 5% CO2.
DBT cells were suspended in growth medium in triplicate wells in 6-well plates and preincubated with appropriate concentrations of the inhibitor. The next day, the medium was aspirated, and MHV-A59 was added to each well at a titer of 100 PFU/well. After incubation for 1 h, the virus inoculum was aspirated, and 2 ml of a media-agar overlay with appropriate concentrations of inhibitor was added to each well. The plates were further incubated for 24 h and stained with neutral red to visualize plaques.
For orientation: In a plaque reduction assay, fewer plaques than in the control indicate reduced infectivity or spread.

Another data set relates to DBT cells. Kind of data set: Cytotoxicity assay (MTT). It is filed as cell-based, murine. To be noted: 500 μM, two days. As to the method:
DBT cells were suspended in growth medium in 96-well plates. The next day, appropriate concentrations of the inhibitor were added to the medium. Two days later, the relative numbers of surviving cells were measured by MTT (Sigma, St. Louis, Missouri, United States) assay in accordance with the manufacturer's instructions.

The next data set deals with SARS-CoV. The following applies: cell-based assays; data to be published elsewhere.
The next data set relates to TGEV. In words: Cell-based assay of TGEV replication. The following applies: cell-based assays; data to be published elsewhere.

Sequence of TGEV M^pro (P0C6Y5 2879-3180): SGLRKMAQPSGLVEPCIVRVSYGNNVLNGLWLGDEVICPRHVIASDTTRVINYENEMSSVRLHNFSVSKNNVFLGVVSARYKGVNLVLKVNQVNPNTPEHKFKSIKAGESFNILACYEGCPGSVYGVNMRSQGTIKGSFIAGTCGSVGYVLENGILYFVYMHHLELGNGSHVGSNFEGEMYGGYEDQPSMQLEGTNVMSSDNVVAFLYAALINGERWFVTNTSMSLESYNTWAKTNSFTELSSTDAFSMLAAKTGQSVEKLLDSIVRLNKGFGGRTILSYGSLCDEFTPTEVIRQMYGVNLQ
T1 sequence (P0C6X1 2966-3265 limits assumed): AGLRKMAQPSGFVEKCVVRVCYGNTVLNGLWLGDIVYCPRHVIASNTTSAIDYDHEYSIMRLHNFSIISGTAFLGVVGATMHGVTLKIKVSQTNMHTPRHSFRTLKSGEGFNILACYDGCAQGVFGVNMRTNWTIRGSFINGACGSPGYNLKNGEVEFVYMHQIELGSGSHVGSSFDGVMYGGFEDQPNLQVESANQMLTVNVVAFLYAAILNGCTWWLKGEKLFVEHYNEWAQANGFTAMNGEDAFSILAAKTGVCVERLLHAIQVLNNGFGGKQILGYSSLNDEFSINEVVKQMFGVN
Sequence of IBV M^pro (P0C6Y3 2782-3088): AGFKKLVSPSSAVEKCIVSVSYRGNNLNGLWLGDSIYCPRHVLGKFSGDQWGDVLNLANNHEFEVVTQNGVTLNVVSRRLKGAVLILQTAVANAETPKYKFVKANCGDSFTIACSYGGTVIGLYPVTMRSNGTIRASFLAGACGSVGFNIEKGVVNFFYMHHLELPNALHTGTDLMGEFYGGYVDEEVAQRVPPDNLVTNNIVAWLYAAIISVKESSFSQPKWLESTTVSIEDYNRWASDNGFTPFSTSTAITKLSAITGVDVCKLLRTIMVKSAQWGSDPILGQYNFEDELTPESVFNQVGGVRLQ
Sequence of FIPV M^pro (Q98VG9 2904-3205): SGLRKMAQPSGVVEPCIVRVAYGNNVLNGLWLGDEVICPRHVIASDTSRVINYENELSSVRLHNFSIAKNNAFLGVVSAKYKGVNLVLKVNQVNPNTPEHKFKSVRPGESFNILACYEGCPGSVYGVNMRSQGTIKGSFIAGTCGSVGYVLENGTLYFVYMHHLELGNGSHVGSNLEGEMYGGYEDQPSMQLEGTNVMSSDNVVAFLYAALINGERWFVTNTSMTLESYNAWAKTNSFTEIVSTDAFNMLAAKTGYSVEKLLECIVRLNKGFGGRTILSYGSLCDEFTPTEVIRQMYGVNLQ
Sequence of MHV M^pro (P0C6X9 3334-3635): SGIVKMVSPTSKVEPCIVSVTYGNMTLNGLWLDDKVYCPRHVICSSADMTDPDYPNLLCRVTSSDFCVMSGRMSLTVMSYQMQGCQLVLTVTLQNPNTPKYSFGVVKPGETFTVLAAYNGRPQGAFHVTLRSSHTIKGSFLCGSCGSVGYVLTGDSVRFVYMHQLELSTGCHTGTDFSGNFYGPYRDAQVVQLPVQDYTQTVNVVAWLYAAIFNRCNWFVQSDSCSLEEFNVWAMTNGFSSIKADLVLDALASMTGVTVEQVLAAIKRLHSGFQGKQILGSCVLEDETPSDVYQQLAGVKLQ
Sequence of M^pro of HCoV-NL63 (P0C6X5 2940-3242): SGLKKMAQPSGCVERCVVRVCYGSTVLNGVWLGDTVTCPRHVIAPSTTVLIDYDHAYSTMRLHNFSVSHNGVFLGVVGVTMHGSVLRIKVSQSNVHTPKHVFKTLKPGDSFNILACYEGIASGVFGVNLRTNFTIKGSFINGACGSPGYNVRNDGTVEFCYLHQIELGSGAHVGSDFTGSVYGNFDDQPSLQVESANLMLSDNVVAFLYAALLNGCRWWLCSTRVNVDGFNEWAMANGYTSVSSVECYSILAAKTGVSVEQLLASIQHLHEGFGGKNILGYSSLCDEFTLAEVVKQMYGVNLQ
Sequence of M^pro of HCoV-HKU1 (P0C6X2 3335-3637): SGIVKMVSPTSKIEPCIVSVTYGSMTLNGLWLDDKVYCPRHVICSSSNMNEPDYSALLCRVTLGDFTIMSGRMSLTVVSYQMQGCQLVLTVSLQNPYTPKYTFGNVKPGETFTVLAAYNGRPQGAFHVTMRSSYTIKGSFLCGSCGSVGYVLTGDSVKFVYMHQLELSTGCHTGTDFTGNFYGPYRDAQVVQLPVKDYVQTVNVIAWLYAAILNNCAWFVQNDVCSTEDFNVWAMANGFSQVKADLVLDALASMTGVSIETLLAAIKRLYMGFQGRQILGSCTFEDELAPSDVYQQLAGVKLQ

As to `CCOC(=O)/C=C/[C@H](C[C@@H]1CCNC1=O)NC(=O)[C@@H](CC(=O)[C@@H](NC(=O)c1cc(C)on1)C(C)C)Cc1ccc(F)cc1` [Ruprintrivir, ruprintrivir], in the data set with CoVs, the “inhibition of CoVs” value is “did not show inhibition”. For the same molecule, the aqueous solubility result in [1] is “poor”. The oral bioavailability result in data set [2] was “low”. Also, in the data set on rhinovirus, the “effect of prophylaxis in Phase II studies” value was “reduced the proportion of subjects with positive viral cultures and viral titers”. Moreover, in data set [3], the “most common adverse effects” value was “blood-tinged mucus and nasal passage irritation”; the tolerability result was “well tolerated”.
For orientation: Ki means a dissociation constant, usually derived from enzyme kinetics or from competition with a known ligand. For the molecule `CCOC(=O)/C=C/[C@H](C[C@@H]1CCNC1=O)NC(=O)[C@H](CC(C)C)NC(=O)[C@@H](NC(=O)[C@H](C)NC(=O)c1cc(C)on1)C(C)C` [N1], the inhibitory constant (Ki) was 1.11 ± 0.09 µM at HCoV-229E M^pro; 3.2 ± 0.2 µM at TGEV M^pro; 3.9 ± 0.9 µM at IBV M^pro; 1.11 to 10.7 µM on CoV M^pros (read-out: Ki, range over CoV M^pros). Moreover, the k3 at HCoV-229E M^pro was 14.8 ± 0.7 × 10^−3s^−1; on TGEV M^pro it was 50 ± 3 × 10^−3s^−1; at IBV M^pro (IBV M^pro, inactivation rate constant), 14.5 ± 1.2 × 10^−3s^−1. The values for the kinact/KI at FIPV M^pro and on MHV M^pro were 24000 M⁻¹ s⁻¹ and 2800 M⁻¹ s⁻¹, respectively. Further, the “in vitro inactivation of all CoV M^pros tested” value with CoV M^pros is listed as “fast in vitro inactivation”. Moreover, in the data set with CoV M^pros, the “k3, range over CoV M^pros” value is given as 4.1–50 × 10^−3s^−1.
The IC50 is the concentration that inhibits the measured activity by half. Read a low IC50 as inhibition by little substance. By EC50 is commonly meant the concentration that produces a half-maximal response. Take `Cc1cc(C(=O)N[C@@H](C)C(=O)N[C@H](C(=O)N[C@@H](CC(C)C)C(=O)N[C@H](/C=C/C(=O)OCc2ccccc2)C[C@@H]2CCNC2=O)C(C)C)no1` [N3]: the Ki came out at 1.67 ± 0.18 µM on HCoV-229E M^pro and 9 ± 0.8 µM on SARS-CoV M^pro. For the same molecule, the k3 on HCoV-229E M^pro was 18.0 ± 1.1 × 10^−3s^−1; on SARS-CoV M^pro, 3.1 ± 0.5 × 10^−3s^−1. The kinact/KI at TGEV M^pro (pH 7.3, read-out: kobs/[I]) stood at 13000 M⁻¹ s⁻¹; at FIPV M^pro it was 47000 M⁻¹ s⁻¹; at MHV M^pro, 4800 M⁻¹ s⁻¹; on IBV M^pro (pH 7.3, read-out: kobs/[I]), 7900 M⁻¹ s⁻¹. In addition, in the data set on CoV M^pros, the “in vitro inactivation of all CoV M^pros tested” value is listed as “fast in vitro inactivation”. Moreover, the “inhibition on M^pro of HCoV-NL63” value against M^pro of HCoV-NL63 is recorded as “potent inhibition”. For the same molecule, at M^pro of HCoV-HKU1, the “inhibition on M^pro of HCoV-HKU1” value was “potent inhibition”. For the same molecule, the IC50 was 4 µM in the data set on HCoV-229E, 8.8 µM in the data set on FIPV and 2.7 µM with MHV-A59 [4]. Moreover, the “protection of DBT cells from MHV infection” value in the data set on MHV-A59 [5] (8 μM N3) is “sufficiently protected”. In the data set with MHV-A59 [5] (DBT cells, low-multiplicity (MOI = 0.01)), this molecule gave a concentration giving a half-maximal response (EC50) of 3.4 µM. Also, the “inhibition of cell growth” value in the data set on DBT cells came out at 28.3%. The “inhibition of replication of SARS-CoV” value in the data set with SARS-CoV was “strongly inhibit”. The “inhibition of replication of TGEV” value with TGEV is reported as “strongly inhibit”.
